Where “and” joins values, the source holds several entries; their conditions need not be identical. Equal values may be shown once.
Columns and labels:
[1] = tested on: Store Operated Calcium Entry (SOCE) in Jurkat cells; assay: Fura-2 single-cell Ca2+ measurement of tBHQ-induced SOCE in Jurkat cells; assay type: cell-based, human; settings: for inhibition at 10 µM: Homo sapiens, SOCE modulation based on tBHQ-induced calcium influx
Experimental: Immortalized line of human T lymphocyte Jurkat cells were achieved from ATCC (ATCC® TIB-152™, Rockville, Md., USA) and were cultured in Roswell Park Memorial Institute Medium (RPMI 1640; Sigma-Aldrich, Italy), supplemented with 10% heat-inactivated FBS (Gibco, Italy), 1-glutamine 50 mg/mL (Sigma-Aldrich, Italy), penicillin 10 U/mL and streptomycin […] (Sigma-Aldrich, Italy) at 37° C., under a 5% CO2 humidified atmosphere. For experiments, the cells were plated onto glass coverslips at concentrations of 6×10^4 per mL (24 mm diameter coverslips in 6 well plates).
Compounds were also tested on Jurkat cells in single-cell analysis using Fura-2 AM on cover-slips. Jurkat cells were loaded with 5 μM Fura-2 AM in presence of 0.02% of Pluronic-127 (both from Life Technologies, Italy) and 1 μM sulfinpyrazone in Krebs-Ringer buffer (KRB, 135 mM NaCl, 5 mM KCl, 0.4 mM KH2PO4, 1 mM MgSO4, 5.5 mM glucose, 20 mM HEPES, pH 7.4) containing 2 mM CaCl2 (30 min, room temperature). Afterwards, cells were washed and incubated with KRB for other 30 min to allow de-esterification of Fura-2AM. To measure store operated calcium entry, changes in cytosolic Ca^2+ were monitored upon depletion of the intracellular Ca^2+ stores. Experiments were carried out prior to and during exposure of the cells to the Ca^2+-free solution. In the absence of Ca^2+, the intracellular Ca^2+ stores were depleted by inhibition of the vesicular Ca^2+ pump by 2,5-t-butylhydroquinone (tBHQ, 50 μM; Sigma-Aldrich, Italy). Re-addition of 2 mM Ca^2+ allowed assessing the SOCE. During the experiments the cover-slips were mounted into acquisition chamber and placed on the stage of a Leica DMI6000 epi-fluorescent microscope equipped with S Fluor ×40/1.3 objective. Fura-2 was excited by alternate 340 and 380 nm using a Polychrome IV mono-chromator (Till Photon-ics, Germany) and the probe emission light was filtered through 520/20 band-pass filter and collected by a cooled CCD camera (Hamamatsu, Japan). The fluorescence signals were acquired and processed using MetaFluor software (Molecular Device, Sun-Nyvale, C A, USA). To quantify the differences in the amplitudes of Ca^2+ transients the ratio values were normalized using the formula ΔF/F0 (referred to as normalized Fura-2 ratio, “Norm. Fura ratio”). The percentage of SOCE modulation for each of 15 compounds was determined based on value of tBHQ-induced calcium influx into Jurkat cells. Data were analysed using Microsoft Excel and GraphPad Prism.

[2] = tested on: Store Operated Calcium Entry (SOCE) in BV-2 cells; assay: Fluo-4 fluorimetric assay of tBHQ-induced store operated calcium entry in BV-2 cells; assay type: cell-based, mouse; settings: for inhibition at 10 µM: Mus musculus, SOCE inhibition based on tBHQ-induced calcium influx; for % Activation (10 μM): potentiation of calcium entry
Experimental: (A) BV-2 cells were plated in poly-d-lysine coated 24-well plate and incubated overnight. After 24 hours, cells were loaded with 2 μM Fluo-4 and placed in an extracellular solution containing 0 mM Ca^2+. Stores were depleted with 50 μM tBHQ and calcium influx was stimulated by the addition of 2 mM Ca^2+ alone (Ctrl), or in conbination with: compound with no activity (NM-3A), and compounds that positively (4-(1-(4-(3,5-bis(trifluoromethyl)-1H-pyrazol-1-yl)phenyl)-1H-1,2,3-triazol-4-yl)benzoic acid) and negatively (3-(1-(4-(4-(ethoxycarbonyl)-5-(trifluoromethyl)-1H-pyrazol-1-yl)phenyl)-1H-1,2,3-triazol-4-yl)benzoic acid) regulate SOCE. Calcium responses are expressed as changes in fluorescence intensity before and after the addition of selected modulators. (B) BV-2 cells were assayed for a calcium response to different concentrations of 3-(1-(4-(4-(ethoxycarbonyl)-5-(trifluoromethyl)-1H-pyrazol-1-yl)phenyl)-1H-1,2,3-triazol-4-yl)benzoic acid and 4-(1-(4-(3,5-bis(trifluoromethyl)-1H-pyrazol-1-yl)phenyl)-1H-1,2,3-triazol-4-yl)benzoic acid (0.1-0.3-1-3-10-30-100 μM) using Fluo-4 fluorimetric assay. Concentration-response curves represent the AUC % of both compounds as compared to positive control.
Immortalized primary mouse microglial BV-2 cells were obtained from ATCC (ATCC® CRL-2540™, Rockville, Md., USA) and were cultured in Dulbecco's Modified Eagle's Medium (DMEM; Sigma-Aldrich, Italy), supplemented with 10% heat-inactivated FBS (Gibco, Italy), 1-glutamine 50 mg/mL (Sigma-Aldrich, Italy), penicillin 10 U/mL and streptomycin […] (Sigma-Aldrich, Italy) at 37° C., under a 5% CO2 humidified atmosphere. For experiments, the cells were plated 2×10^4 per ml in 24 well plates) or onto glass coverslips at concentrations of 4×10^4 per mL (24 mm diame-ter coverslips in 6 well plates).
BV-2 cells were loaded with 5 μM Fluo-4 AM in presence of 0.02% of Pluronic-127 (both from Life Technologies, Italy) and 10 μM sulfinpyrazone in Krebs-Ringer buffer (KRB, 135 mM NaCl, 5 mM KCl, 0.4 mM KH2PO4, 1 mM MgSO4, 5.5 mM glucose, 20 mM HEPES, pH 7.4) containing 2 mM CaCl2 (30 min, room temperature). Subsequently, cells were washed and incubated with KRB for other 30 min to allow de-esterification of Fluo-4 AM. Experiments were carried out prior to and during exposure of the cells to the Ca^2+-free solution. In the absence of Ca^2+, the intracellular Ca^2+ stores were depleted by 2,5-t-butylhydroquinone (tBHQ, 50 μM; Sigma-Aldrich, Italy), a SERCA poison, and then calcium 2 mM was re-added to the extracellular solution. Fluorescence is then monitored sequentially for a second in each well for 600 seconds with excitation at 494 nm and an emission wavelength at 516 nm on the V3 Victor plate-reader (Perkin Elmer), generating time-curves for each well. Data were analysed using Microsoft Excel and GraphPad Prism.
The percentage of SOCE inhibition for each compound was determined based on value of tBHQ-induced calcium influx into BV-2 cells (Table 2).

ICRAC = ICRAC (Homo sapiens, UniProt Q96D31); settings: read-out: IC50 (inhibition of ICRAC); cited from earlier work
ICRAC, sequence (Q96D31 whole entry): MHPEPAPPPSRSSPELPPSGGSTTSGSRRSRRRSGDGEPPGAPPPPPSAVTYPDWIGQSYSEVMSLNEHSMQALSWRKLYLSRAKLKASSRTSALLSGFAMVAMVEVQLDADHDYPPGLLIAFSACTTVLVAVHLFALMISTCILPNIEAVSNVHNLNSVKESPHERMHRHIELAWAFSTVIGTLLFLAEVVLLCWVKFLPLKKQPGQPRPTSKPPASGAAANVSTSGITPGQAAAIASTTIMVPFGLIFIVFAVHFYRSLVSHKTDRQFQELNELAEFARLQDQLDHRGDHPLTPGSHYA

CCOC(=O)c1cnn(-c2ccc(-c3cn(-c4ccncc4F)nn3)cc2)c1C(F)(F)F [ethyl 1-(4-(1-(3-fluoropyridin-4-yl)-1H-1,2,3-triazol-4-yl)phenyl)-5-(trifluoromethyl)-1H-pyrazole-4-carboxylate] gave an inhibition at 10 µM [1] of 32.9% and an inhibition at 10 µM [2] of 37.7%.
COC(=O)c1cnn(-c2ccc(-n3cc(-c4cccc(C(=O)O)c4)nn3)cc2)c1C(F)(F)F [3-(1-(4-(4-(methoxycarbonyl)-5-(trifluoromethyl)-1H-pyrazol-1-yl)phenyl)-1H-1,2,3-triazol-4-yl)benzoic acid] gave an inhibition at 10 µM [1] of 21.8% and an inhibition at 10 µM [2] of 12.4%.
CCOC(=O)c1cnn(-c2ccc(-n3cc(-c4ccc(O)c(OC)c4)nn3)cc2)c1C(F)(F)F [ethyl 1-(4-(4-(4-hydroxy-3-methoxyphenyl)-1H-1,2,3-triazol-1-yl)phenyl)-5-(trifluoromethyl)-1H-pyrazole-4-carboxylate] gave an inhibition at 10 µM [1] of 78.4% and an inhibition at 10 µM [2] of 35%.
Work on O=C(O)c1cccc(-c2cn(-c3ccc(-n4nc(C(F)(F)F)cc4C(F)(F)F)cc3)nn2)c1 [3-(1-(4-(3,5-bis(trifluoromethyl)-1H-pyrazol-1-yl)phenyl)-1H-1,2,3-triazol-4-yl)benzoic acid] yielded an inhibition at 10 µM [1] of 38.3% and an inhibition at 10 µM [2] of 38.7%.
In the case of CCOC(=O)c1cnn(-c2ccc(-c3cn(-c4ccc(Cl)cc4)nn3)cc2)c1C(F)(F)F [ethyl 1-(4-(1-(4-chlorophenyl)-1H-1,2,3-triazol-4-yl)phenyl)-5-(trifluoromethyl)-1H-pyrazole-4-carboxylate], the “% Activation (10 μM)” value [1] is reported as 122.94% and 126.78% and 97.32% and the “% Activation (10 μM)” value [2] is reported as 47.07%.
For O=C(O)c1cccc(-n2cc(-c3ccc(-n4nc(C(F)(F)F)cc4C(F)(F)F)cc3)nn2)c1 [3-(4-(4-(3,5-bis(trifluoromethyl)-1H-pyrazol-1-yl)phenyl)-1H-1,2,3-triazol-1-yl)benzoic acid], the inhibition at 10 µM [1] was 39.7% and the inhibition at 10 µM [2] was 30.5%.
Work on CCOC(=O)c1cnn(-c2ccc(-n3cc(-c4ccc(C(=O)O)cc4)nn3)cc2)c1C(F)(F)F [4-(1-(4-(4-(ethoxycarbonyl)-5-(trifluoromethyl)-1H-pyrazol-1-yl)phenyl)-1H-1,2,3-triazol-4-yl)benzoic acid] yielded an inhibition at 10 µM [1] of 32.3% and an inhibition at 10 µM [2] of 40.1%.
With O=C(O)c1cnn(-c2ccc(-c3cn(-c4ccc(Cl)cc4)nn3)cc2)c1C(F)(F)F [1-(4-(1-(4-chlorophenyl)-1H-1,2,3-triazol-4-yl)phenyl)-5-(trifluoromethyl)-1H-pyrazole-4-carboxylic acid] the “% Activation (10 μM)” value [1] was 100.13%.
For COc1ccc(OC)c(-c2ccc(NC(=O)c3ccncc3F)cc2)c1 [Synta66], the IC50 (ICRAC) is listed as 300 nM.
Compound CC(C)OC(=O)c1cnn(-c2ccc(-n3cc(-c4cccc(C(=O)O)c4)nn3)cc2)c1C(F)(F)F [3-(1-(4-(4-(isopropoxycarbonyl)-5-(trifluoromethyl)-1H-pyrazol-1-yl)phenyl)-1H-1,2,3-triazol-4-yl)benzoic acid] has an inhibition at 10 µM [1] of 93.9% and an inhibition at 10 µM [2] of 74.6%.
With CCOC(=O)c1cnn(-c2ccc(-c3cn(-c4cccc(C(=O)O)c4)nn3)cc2)c1C(F)(F)F [3-(4-(4-(4-(ethoxycarbonyl)-5-(trifluoromethyl)-1H-pyrazol-1-yl)phenyl)-1H-1,2,3-triazol-1-yl)benzoic acid] the inhibition at 10 µM [1] was 63.6% and the inhibition at 10 µM [2] was 43.3%.
O=C(O)c1cccc(-c2cn(-c3ccc(-n4ncc(C(=O)OCc5ccccc5)c4C(F)(F)F)cc3)nn2)c1 [3-(1-(4-(4-((benzyloxy)carbonyl)-5-(trifluoromethyl)-1H-pyrazol-1-yl)phenyl)-1H-1,2,3-triazol-4-yl)benzoic acid] gave an inhibition at 10 µM [1] of 33.5% and an inhibition at 10 µM [2] of 87%.
With O=C(O)c1cccc(-c2cn(-c3ccc(-n4ncc(C(=O)OCc5ccncc5)c4C(F)(F)F)cc3)nn2)c1 [3-(1-(4-(4-((pyridin-4-ylmethoxy)carbonyl)-5-(trifluoromethyl)-1H-pyrazol-1-yl)phenyl)-1H-1,2,3-triazol-4-yl)benzoic acid] the inhibition at 10 µM [1] was 57% and the inhibition at 10 µM [2] was 54.6%.
With O=C(O)c1cccc(-c2cn(-c3ccc(-n4ncc(C(=O)OCCN5CCOCC5)c4C(F)(F)F)cc3)nn2)c1 [3-(1-(4-(4-((2-morpholinoethoxy)carbonyl)-5-(trifluoromethyl)-1H-pyrazol-1-yl)phenyl)-1H-1,2,3-triazol-4-yl)benzoic acid] the inhibition at 10 µM [1] was 25.1% and the inhibition at 10 µM [2] was 95.7%.
CCOC(=O)c1cnn(-c2ccc(-c3cn(CCCC(=O)O)nn3)cc2)c1C(F)(F)F [4-(4-(4-(4-(ethoxycarbonyl)-5-(trifluoromethyl)-1H-pyrazol-1-yl)phenyl)-1H-1,2,3-triazol-1-yl)butanoic acid] showed an inhibition at 10 µM [1] of 19.1% and an inhibition at 10 µM [2] of 30.1%.
With O=C(O)c1ccc(-c2cn(-c3ccc(-n4nc(C(F)(F)F)cc4C(F)(F)F)cc3)nn2)cc1 [4-(1-(4-(3,5-bis(trifluoromethyl)-1H-pyrazol-1-yl)phenyl)-1H-1,2,3-triazol-4-yl)benzoic acid] the “% Activation (10 μM)” value [1] was 136.42%, the “% Activation (10 μM)” value [2] was 125.15% and the “Regulation of SOCE (calcium response, representative traces FIG. 2A)” value ([2]; Fluo-4, 50 μM tBHQ, 2 mM Ca2+ re-addition) was “positively”.
